Laboratory results reported in patent US9884842B2, “Combretastatin analogs” (The Board of Trustees of the University of Arkansas, priority 2013, dated 2018).
Read-outs that look alike come from different tables or passages of the source.

Legend:
NCI-H522 = experiment: NCI growth inhibition and cytotoxicity screen, Lung Cancer panel; type: cell-based; details: Homo sapiens, Table 2, cell line NCI-H522 (Lung Cancer)
SF-295 = experiment: NCI growth inhibition and cytotoxicity screen, CNS Cancer panel; type: cell-based; details: Homo sapiens, Table 2, cell line SF-295 (CNS Cancer)
[1] = tested on: full panel of 60 different cancer cell lines; experiment: NCI five dose screen, full panel summary; type: cell-based, human; details: for GI50: Homo sapiens
HL-60(TB) = experiment: cells; details: Homo sapiens
MDA-MB-468 = experiment: cells; details: Homo sapiens
CCRF-CEM = experiment: NCI growth inhibition and cytotoxicity screen, Leukemia panel; details: Homo sapiens
MOLT-4 = experiment: as above; details: Homo sapiens
MALME-3M = experiment: NCI growth inhibition and cytotoxicity screen, Melanoma panel; details: Homo sapiens
MDA-MB-435 = experiment: as above; details: Homo sapiens
SK-MEL-5 = experiment: as above; details: Homo sapiens
HOP-62 = experiment: NCI growth inhibition and cytotoxicity screen, Lung Cancer panel; details: Homo sapiens
NCI-H23 = experiment: as above; details: Homo sapiens
NCI-H322M = experiment: as above; details: Homo sapiens
COLO 205 = experiment: NCI growth inhibition and cytotoxicity screen, Colon Cancer panel; details: Homo sapiens
HCC-2998 = experiment: as above; details: Homo sapiens
HCT-116 = experiment: as above; details: Homo sapiens
HCT-15 = experiment: as above; details: Homo sapiens
SW-620 = experiment: as above; details: Homo sapiens
ACHN = experiment: NCI growth inhibition and cytotoxicity screen, Renal Cancer panel; details: Homo sapiens
RXF 393 = experiment: as above; details: Homo sapiens
SN12C = experiment: as above; details: Homo sapiens
UO-31 = experiment: as above; details: Homo sapiens, UO-31, read-out: LC50
MDA-MB-231/ATCC = experiment: NCI growth inhibition and cytotoxicity screen, Breast Cancer panel; details: Homo sapiens
HS 578T = experiment: as above; details: Homo sapiens
OVCAR-4 = experiment: NCI growth inhibition and cytotoxicity screen, Ovarian Cancer panel; details: Homo sapiens
OVCAR-8 = experiment: as above; details: Homo sapiens
PC-3 = experiment: NCI growth inhibition and cytotoxicity screen, Prostate Cancer panel; details: Homo sapiens
DU-145 = experiment: as above; details: Homo sapiens
[2] = read-out: LC50 (the source's name)

With COc1cc(OC)cc(/C(C#N)=C/c2cnc3ccccc3c2)c1 [PNR-4-85, (Z)-3-(quinolin-3-yl)-2-(3,5-dimethoxyphenyl)acrylonitrile] the GI50 (NCI-H522) was 69 nM, the CC50 (NCI-H522; [2]) was over 100000 nM and the GI50 (SF-295) was 243 nM. The CC50 (SF-295; [2]) was over 100000 nM, the GI50 ([1]; range over the potently inhibited cell lines, read-out: GI50 ranging (potently inhibited cancer cell lines)) was 53 to 903 nM and the GI50 ([1]; read-out: average GI50 value on all the cancer cell lines) was 2210 nM. For the same compound, the “potent growth inhibition on % of the cancer cell lines” value ([1]; share of the cancer cell lines potently inhibited) was 81%, the GI50 (HL-60(TB); HL-60) was 234 nM and the CC50 (HL-60(TB); HL-60, read-out: LC50) was over 100000 nM. It also gave a GI50 (MDA-MB-468; MDA-MB-468) of 217 nM, a CC50 (MDA-MB-468; MDA-MB-468, read-out: LC50) of over 100000 nM and a GI50 (CCRF-CEM) of 332 nM. For the same compound, the CC50 (CCRF-CEM; read-out: LC50) was over 100000 nM, the GI50 (MOLT-4; MOLT-4) was 378 nM and the CC50 (MOLT-4; MOLT-4, read-out: LC50) was over 100000 nM. It also gave a GI50 (MALME-3M) of 635 nM, a CC50 (MALME-3M; read-out: LC50) of over 100000 nM and a GI50 (MDA-MB-435; MDA-MB-435) of 53 nM. It also gave a CC50 (MDA-MB-435; MDA-MB-435, read-out: LC50) of over 100000 nM, a GI50 (SK-MEL-5; SK-MEL-5) of 249 nM and a CC50 (SK-MEL-5; SK-MEL-5, read-out: LC50) of over 100000 nM. For the same compound, the GI50 (HOP-62; HOP-62) was 793 nM, the CC50 (HOP-62; HOP-62, read-out: LC50) was over 100000 nM and the GI50 (NCI-H23; NCI-H23) was 747 nM. It also gave a CC50 (NCI-H23; NCI-H23, read-out: LC50) of over 100000 nM, a GI50 (NCI-H322M) of 903 nM and a CC50 (NCI-H322M; read-out: LC50) of over 100000 nM. For the same compound, the GI50 (COLO 205; COLO 205) was 398 nM, the CC50 (COLO 205; COLO 205, read-out: LC50) was 89900 nM and the GI50 (HCC-2998; HCC 2998) was 1450 nM. For the same compound, the CC50 (HCC-2998; HCC 2998, read-out: LC50) was over 100000 nM, the GI50 (HCT-116; HCT-116) was 420 nM and the CC50 (HCT-116; HCT-116, read-out: LC50) was over 100000 nM. It also gave a GI50 (HCT-15; HCT-15) of 455 nM, a CC50 (HCT-15; HCT-15, read-out: LC50) of over 100000 nM and a GI50 (SW-620; SW-620) of 352 nM. The CC50 (SW-620; SW-620, read-out: LC50) was over 100000 nM, the GI50 (ACHN) was 1190 nM and the CC50 (ACHN; read-out: LC50) was over 100000 nM. The GI50 (RXF 393; RXF 393) was 297 nM, the CC50 (RXF 393; RXF 393, read-out: LC50) was over 100000 nM and the GI50 (SN12C) was 661 nM. It also gave a CC50 (SN12C; read-out: LC50) of over 100000 nM, a CC50 (UO-31) of over 100000 nM and a GI50 (MDA-MB-231/ATCC; MDA-MB-231) of 1150 nM. For the same compound, the CC50 (MDA-MB-231/ATCC; MDA-MB-231, read-out: LC50) was over 100000 nM, the GI50 (HS 578T) was 715 nM and the CC50 (HS 578T; read-out: LC50) was over 100000 nM. It also gave a GI50 (OVCAR-4; OVCAR-4) of 1730 nM, a CC50 (OVCAR-4; OVCAR-4, read-out: LC50) of over 100000 nM and a GI50 (OVCAR-8; OVCAR-8) of 584 nM. The CC50 (OVCAR-8; OVCAR-8, read-out: LC50) was over 100000 nM, the GI50 (PC-3; PC-3) was 506 nM and the CC50 (PC-3; PC-3, read-out: LC50) was over 100000 nM. It also gave a GI50 (DU-145; DU-145) of 505 nM and a CC50 (DU-145; DU-145, read-out: LC50) of over 100000 nM.
